One assay addresses Type IV collagenase. Nature of the assay: Type IV collagenase inhibiting activity (fluorescence labeled gelatin). Type of assay: biochemical, human. The settings on record: from HT-1080 cell; 6 hours at 37° C., pH 7.5. How it is done: (3) Measuring Method of Type IV Collagenase Inhibiting Activity
Inhibiting of type IV collagenase refined from the culture supernatant of human […] (HT-1080 cell) was measured by using fluorescence labeled gelatin, according to the method proposed by Haris et al. [Haris, E. D., and Krane, S. M., Biochim. Biophys. Acta., 258, 566-576 (1972)].
The enzyme was activated by incubating for 22 hours at 37° C. in 1 mM mercury (II) p-aminophenylacetate. The test compound was used by dissolving in dimethyl sulfoxide. The enzyme reaction was started by adding the activated enzyme in 50 mM TRIS-hydrochloric acid (pH 7.5), 10 mM CaCl2, 0.01% (w/v) "Bridge 35" (tradename, available from Wako Pure Chemical Industries, Ltd.), 0.1% (v/v) dimethyl sulfoxide solution containing the test compound and 0.1% (w/v) of fluorescence labeled gelatin as substrate. The reaction was conducted for 6 hours at 37° C., and stopped by adding 30% (w/v) trichloroacetic acid solution by 1/2 amount. After letting stand at 4° C. for 30 minutes, by centrifugal separation for 10 minutes at 10000 rpm, 4° C., the undigested substrate was precipitated. To 1 part by volume of the obtained supernatant, 50 parts by volume of 0.3M phosphate buffer (pH 8.5) was added, and the fluorescence intensity was measured at 520 nm (Em)/495 nm (Ex), and the undigested amount was quantitatively determined.
The enzyme inhibiting activity was expressed by the concentration (IC50) of the test compound wherein the enzyme activity of known amount was blocked till 50%.

A further assay has as its target T1, Interstitial collagenase (Homo sapiens, UniProt P03956).
T1 construct: endogenous in cells; host or cells: Detroit 551 (human fibroblasts), culture supernatant, purified
T1 sequence (P03956 100-469): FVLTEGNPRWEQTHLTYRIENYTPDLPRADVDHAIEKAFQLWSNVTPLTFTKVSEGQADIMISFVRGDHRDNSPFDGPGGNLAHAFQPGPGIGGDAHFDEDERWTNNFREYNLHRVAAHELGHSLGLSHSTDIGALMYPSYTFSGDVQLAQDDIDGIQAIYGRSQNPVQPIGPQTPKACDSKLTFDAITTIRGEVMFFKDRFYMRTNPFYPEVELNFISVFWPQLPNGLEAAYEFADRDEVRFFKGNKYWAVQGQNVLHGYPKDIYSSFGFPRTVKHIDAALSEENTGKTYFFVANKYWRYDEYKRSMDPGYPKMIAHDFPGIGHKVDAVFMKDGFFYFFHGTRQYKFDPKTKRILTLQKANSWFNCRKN
In words: Interstitial collagenase inhibiting activity (fluorescence labeled collagen). The settings on record: from human fibroblast cell (Detroit 551); 2 hours at 35° C., pH 7.5. Type of assay: biochemical. How it is done: (2) Measuring Method of Interstitial Collagenase Inhibiting Activity
Inhibiting of interstitial collagenase refined from the culture supernatant of human fibroblast cell (Detroit 551 cell) was measured by using fluorescence labeled collagen, according to the method proposed by Nagai et al. [Inflammation, 4 (2), 123 (1984)].
The enzyme was activated by incubating for 3 hours at 37° C. in 1 mM mercury (II) p-aminophenylacetate. The test compound was used by dissolving in dimethyl sulfoxide. The enzyme reaction was started by adding the activated enzyme in 50 mM TRIS-hydrochloric acid (pH 7.5), 0.2M NaCl, 5 mM CaCl2, 0.02% (w/v) NaN3, 2.5 mM acetic acid, and 0.1% (v/v) dimethyl sulfoxide solution containing the test compound and 0.025% (w/v) of fluorescence labeled collagen as substrate. The reaction was conducted for 2 hours at 35° C., and stopped by adding ice-chilled 80 mM O-phenanthroline, 50% (v/v) ethanol solution by 1/20 amount. To this, moreover, an equivalent volume of 50 mM TRIS-hydrochloric acid (pH 7.5), 0.2M NaCl, 5 mM CaCl2, 0.02% (w/v) NaN3 solution was added to incubate further for 1 hour at 35° C. to degenerate specifically only the digestion product, and the digestion product was extracted by adding 0.17M TRIS-hydrochloric acid (pH 9.5), 0.67M NaCl solution including an equivalent amount of 70% (v/v) ethanol, and afterwards, by centrifugal separation for 15 minutes at 3000 rpm, 4° C., the undigested substrate was precipitated. The fluorescence intensity of the obtained supernatant was measured at 520 nm (Em)/495 nm (Ex), and the decomposition volume was quantitatively determined.
(§1) The enzyme inhibiting activity was expressed by the concentration (IC50) of the test compound wherein the enzyme activity of known amount was inhibited till 50%.

Another assay has as its target T2, Stromelysin (Mus musculus, UniProt P28862).
T2 construct: endogenous in cells; host or cells: Colon 26 (mouse colon cancer cells), culture supernatant, purified
Nature of the assay: Stromelysin inhibiting activity (fluorescence labeled casein). The settings on record: from mouse colon cancer cell (Colon 26); 3 hours at 37° C., pH 7.5. Type of assay: biochemical. The method, then: (1) Measuring Method of Stromelysin Inhibiting Activity
Inhibiting of Stromelysin refined from the culture supernatant of mouse colon cancer cell (Colon 26 cell) was measured by using fluorescence labeled casein, according to the method proposed by Miyazaki et al. (J. Biochem., 108, 537-543, 1990), and S. S. Twining [Fed. Proc., 42, 1951 (1984)].
The enzyme was activated by incubating for 2 hours at 37° C. in 1 mM mercury (II) p-aminophenylacetate. The test compound was used by dissolving in dimethyl sulfoxide. The enzyme reaction was started by adding the activated enzyme in a solution of 50 mM TRIS-hydrochloric acid (pH 7.5), 10 mM CaCl2, and 0.1% (v/v) dimethyl sulfoxide containing the test compound and 0.25% (w/v) of fluorescence labeled casein as substrate. The reaction was conducted for 3 hours at 37° C., and stopped by adding an equivalent amount of 5% (w/v) trichloroacetic acid solution. Afterwards, by centrifugal separation for 15 minutes at 3000 rpm, 4° C., the undigested substrate was precipitated, and to 1 part by volume of the obtained supernatant, 4 parts by volume of 0.3M phosphate buffer (pH 8.5) was added, and the fluorescence intensity was measured at 520 nm (Em)/495 nm (Ex), and the decomposition volume was quantitatively determined.
as §1

Assay [1] deals with Colon 26 PMF15 tumor cells. In words: Lung metastasis of Colon 26 PMF15 tumor in mice after oral administration. Type of assay: in vivo, male CDF1 mice. The settings on record: Test I; for Number of lung metastastic nodules mean ± S.E.: day 28; for Ratio to control group: lung nodules. How it is done:
Experiment was carried out according to a method of Motoyama et al. [Gan To Kagaku Ryoho (JAPAN), 21(8): pages 1209-1214, 1994]. That is, Colon 26 PMF15 tumor cells (5×10^5 /mouse) were inoculated into the left hind footpad of male CDF1 mice (one group comprising 7 mice). After 14 days from inoculation, the left hind-limb was cut from the upper part of the articulatio geniculum under pentobarbital anesthetization using a cautery knife to remove the primary tumor. After 28 days from inoculation,the lung was removed and the number of metastastic nodules on the surface thereof were measured, thereby taking it as an index of the effect. The test compound was orally administered one time a day until 27 days have passed since the day following the day when tumor cells were inoculated, excluding the day when the primary tumor was removed.

pIC50: −log10 of the molar value.

T2 sequence (P28862 100-477): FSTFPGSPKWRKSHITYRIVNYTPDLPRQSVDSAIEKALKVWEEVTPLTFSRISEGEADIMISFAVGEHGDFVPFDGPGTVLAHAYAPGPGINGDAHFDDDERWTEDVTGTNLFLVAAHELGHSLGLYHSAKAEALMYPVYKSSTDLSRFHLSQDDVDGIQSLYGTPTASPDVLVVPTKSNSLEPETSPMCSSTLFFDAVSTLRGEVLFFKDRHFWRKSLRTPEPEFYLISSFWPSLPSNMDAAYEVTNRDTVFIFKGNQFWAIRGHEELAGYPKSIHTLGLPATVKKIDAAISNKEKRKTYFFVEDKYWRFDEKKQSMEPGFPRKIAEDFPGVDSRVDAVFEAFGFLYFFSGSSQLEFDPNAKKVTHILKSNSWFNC

Broadly, the pIC50 is the IC50 on a negative log10 scale, so that one unit is a factor of ten. Low readings indicate a large IC50, high ones a small IC50. In turn, “3S- [4-(N-hydroxyamino)-2R-isobutyl-3S-methylsuccinyl]amino-3,4-dihydrocarbostyril [Example 17]” showed a pIC50 against Type IV collagenase of 6.47.
On to `COCOCCN1C(=O)[C@@H](NC(=O)[C@@H](CC(=O)NO)CC(C)C)Cc2ccccc21` [Test compound 19, 3S-[4-(N-hydroxyamino)-2R-isobutylsuccinyl]amino-1-methoxymethoxyethyl-3,4-dihydrocarbostyril], for which the pIC50 against Interstitial collagenase was 6.85; against Type IV collagenase it was 5.01.
Regarding `CCCCC[C@H](CC(=O)NO)C(=O)N[C@H]1Cc2cc3c(cc2N(CC)C1=O)OCO3` [Test compound 29, 1-ethyl-3S-[4-(N-hydroxyamino)-2R-pentylsuccinyl]amino-6,7-methylenedioxy-3,4-dihydrocarbostyril], the pIC50 is 7.85 against Interstitial collagenase and 6.70 against Type IV collagenase.
Regarding `COc1ccc2c(c1)NC(=O)[C@@H](NC(=O)[C@@H](CC(=O)NO)CC(C)C)C2` [Test compound 2, 3S-[4-(N-hydroxyamino)-2R-isobutylsuccinyl]amino-7-methoxy-3,4-dihydrocarbostyril], the values for the pIC50 against Interstitial collagenase, against Stromelysin and against Type IV collagenase were 6.35, 6.31 and 6.29, respectively.
On Type IV collagenase, “3S-[4-(N-hydroxyamino)-2R-isobutyl-3S-methylsuccinyl]amino-1-(4-methoxybenzyl)-3,4dihydrocarbostyril [Example 31]” showed a pIC50 of 5.85.
In the case of `CON1C(=O)[C@@H](NC(=O)[C@@H](CC(=O)NO)CC(C)C)Cc2ccccc21` [Test compound 3, 3S-[4-(N-hydroxyamino)-2R-isobutylsuccinyl]amino-1-methoxy-3,4-dihydrocarbostyril], the “Number of lung metastastic nodules mean ± S.E.” value in assay [1] (25 mg/kg/day oral) came out at 19.0 ± 3.7; in assay [1] (50 mg/kg/day oral) it was 18.7 ± 6.0; in assay [1] (100 mg/kg/day oral) it was 13.0 ± 5.2; in assay [1] (200 mg/kg/day oral) it was 9.2 ± 2.8. For the same molecule, the “Ratio to control group” value in assay [1] (25 mg/kg/day oral) is 90%; in assay [1] (50 mg/kg/day oral) it was 88%; in assay [1] (100 mg/kg/day oral), 61%; in assay [1] (200 mg/kg/day oral), 43%. Besides, the figures for the pIC50 at Interstitial collagenase, against Stromelysin and at Type IV collagenase were 6.16, 5.89 and 6.28, respectively.
Take “3S- [4-(N-hydroxyamino)-2R-isobutyl-succinyl ]amino-1-isobutoxy-3,4-dihydrocarbostyril [Example 21]”: the pIC50 against Type IV collagenase was 6.47.
For `CC(C)C[C@H](CC(=O)NO)C(=O)N[C@H]1Cc2ccccc2NC1=O` [Test compound 1, 3S-[4-(N-hydroxyamino)-2R-isobutylsuccinyl]amino-3,4-dihydrocarbostyril], the pIC50 is 6.68 against Interstitial collagenase, 6.24 against Stromelysin and 5.77 on Type IV collagenase.
Consider `CC(C)C[C@@H](C(=O)N[C@H]1Cc2ccccc2NC1=O)C(CN1C(=O)c2ccccc2C1=O)C(=O)NO` (single isomer, unassigned) [Test compound 7, 3S-[4-(N-hydroxyamino)-2R-isobutyl-3(R or S)-phthalimidomethylsuccinyl]amino-3,4-dihydrocarbostyril], for which the results for the pIC50 against Stromelysin and on Type IV collagenase were 7.64 and 7.74, respectively.
With `CC(=O)SC[C@H](C(=O)NO)[C@@H](CC(C)C)C(=O)N[C@H]1Cc2ccccc2NC1=O` [Test compound 4, 3S-[4-(N-hydroxyamino)-2R-isobutyl-3S-acetylthiomethylsuccinyl]amino-3,4-dihydrocarbostyril], the results for the pIC50 at Interstitial collagenase, against Stromelysin and at Type IV collagenase were 5.54, 6.07 and 5.72, respectively.
The like results for `CC(C)C[C@@H](C(=O)N[C@H]1Cc2ccccc2NC1=O)[C@H](CSc1cccs1)C(=O)NO` [Test compound 6, 3S-[4-(N-hydroxyamino)-2R-isobutyl-3S-(2-thienylthiomethyl)succinyl]amino-3,4-dihydrocarbostyril] were, in that order, 8.62, 7.57 and 7.24.
Turning to `CC(C)C[C@H](CC(=O)NO)C(=O)N[C@H]1Cc2cc3c(cc2N(C)C1=O)OCO3` [Test compound 27, 3S-[4-(N-hydroxyamino)-2R-isobutylsuccinyl]amino-1-methyl-6,7-methylenedioxy-3,4-dihydrocarbostyril], the pIC50 against Interstitial collagenase is 6.96; against Type IV collagenase, 5.66.
Molecule “1-(4-carboxybenzyl)-3(R or S)-[4-(N-hydroxyamino)-2R-isobutylsuccinyl]amino-3,4-dihydrocarbostyril [Example 30]” gave a pIC50 on Type IV collagenase of 6.62.
Take `CC(C)C[C@@H](C(=O)N[C@H]1Cc2ccccc2NC1=O)[C@H](CS)C(=O)NO` [Test compound 5, 3S-[4-(N-hydroxyamino)-2R-isobutyl-3S-mercaptomethylsuccinyl]amino-3,4-dihydrocarbostyril]: the pIC50 against Interstitial collagenase was 6.44; on Stromelysin, 6.82; on Type IV collagenase it was 6.27.

These data come from patent US5594006A, “Carbostyril derivatives as matrix metalloproteinases inhibitors” (Otsuka Pharmaceutical Co., Ltd., priority 1993, dated 1997).
